Where two headings read alike, the source gives them in different places.
Assays:
[1] = molecular target: T1, CHK1 (kinase domain) (Homo sapiens, UniProt O14757); assay: CHK1 Ki determination, spectrophotometric coupled (pyruvate kinase/lactate dehydrogenase) assay; type: biochemical; conditions: CHK-1 kinase domain; for Ki: 150 uM ATP, 125 uM Syntide 2; for percent inhibition (where no Ki data is available): inhibitor concentration not given
T1 construct: a solution containing 1 nM of CHK1 (kinase domain)
T1 sequence (O14757 9-265 limits assumed): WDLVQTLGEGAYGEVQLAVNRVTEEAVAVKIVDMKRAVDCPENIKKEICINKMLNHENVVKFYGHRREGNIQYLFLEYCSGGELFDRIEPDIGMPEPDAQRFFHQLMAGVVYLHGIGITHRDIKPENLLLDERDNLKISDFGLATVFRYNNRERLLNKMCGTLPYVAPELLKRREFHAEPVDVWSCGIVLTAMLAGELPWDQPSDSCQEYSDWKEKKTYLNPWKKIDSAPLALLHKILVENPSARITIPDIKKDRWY
Method in brief: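 The CHK1 kinase domain was pre-incubated with compound for 15 min, and the reaction was started with 125 uM Syntide 2 and 150 uM ATP. ADP formation was coupled through pyruvate kinase/lactate dehydrogenase to NADH oxidation, read as the A340 decrease. Kiapp was fitted with a tight-binding equation that accounts for enzyme concentration and ATP Km; some entries are % inhibition.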

[2] = tested on: HeLa cells; assay: Histone H3 (Ser10) phosphorylation ELISA, abrogation of camptothecin-induced G2 arrest (CHK-1 cellular assay); type: cell-based; conditions: HeLa cells, camptothecin 8 hrs, then compound with nocodozole 16 hours, read-out: EC50
Protocol: The Histone H3 phosphorylation ELISA assay detects cells entering mitosis and represents the primary in vitro cell-based assay used to measure the cellular potency of compounds in abrogating the G2 check point induced by DNA damage in HeLa cells or MiaPaCa cells. The candidate substances were assayed for potency in their ability to inhibit camptothecin-induced G2 arrest, as measured by an increase in Histone H3 phosphorylation on Ser10, a marker of entry into mitosis.
Tissue culture plates were seeded with HeLa cells or MiaPaCa Cells and allowed to attach overnight. The cells were then treated with camptothecin to induce DNA damage for 8 hrs. Candidate substances or diluent were then added in the presence of nocodozole for 16 hours. […] The fresh whole cell lysates were then thawed and added to the ELISA plate with shaking for 3 hours. Between all subsequent steps plates were washed 4 times with PBST. Biotinylated phospho Histone H3 (ser10) detection antibody was added for 1 hour, followed by addition of horseradish peroxidase-linked streptavidin secondary antibody for 1 hour. Color development of the antibody was performed with addition of TMB substrate and incubation for 2 minutes on a plate shaker. […] EC50 values were calculated by sigmoid curve fitting using a four-parameter analysis.
Under the “Ki” column, data entries in the format of “%” are percent inhibition data where no Ki data is available. Data entry under the “EC50” column with an * are data obtained using Mia Paca-2 cells rather than HeLa cells. Data is not available where noted as n/a.

Question: What does the source list for F[C@H]1CNC[C@@H]1Nc1cncc(-c2cnn3ccccc23)n1 [Example 66, N-[(3S,4S)-4-fluoropyrrolidin-3-yl]-6-(pyrazolo[1,5-a]pyridin-3-yl)pyrazin-2-amine]?
Answer: Ki [1]: 12.7 nM; EC50 ([2]; Homo sapiens, HeLa): 344 nM

Question: Which Ki [1] does the source give for FC1(F)CCNC[C@@H]1Nc1cncc(-c2cnc3ccccn23)n1 [Example 249, N-[(3S)-4,4-difluoropiperidin-3-yl]-6-(imidazo[1,2-a]pyridin-3-yl)pyrazin-2-amine] here?
Answer: Its Ki is 4.5 nM.

Question: What about the EC50 ([2]; Homo sapiens, HeLa) of the same molecule?
Answer: Its EC50 is 32.2 nM.

Question: Which results are given for Cc1cn2c(-c3cncc(N[C@@H]4CCCN[C@@H]4C)n3)cnc2s1 [Example 96, 6-(2-methylimidazo[2,1-b][1,3]thiazol-5-yl)-N-[(2R,3R)-2-methylpiperidin-3-yl]pyrazin-2-amine]?
Answer: Ki [1]: 2.7 nM; EC50 ([2]; Homo sapiens, HeLa): 24.3 nM

Question: c1ccn2c(-c3cncc(N[C@H]4CCCNC4)n3)cnc2c1 [Example 3, 6-Imidazo[1,2-a]pyridin-3-yl-N-[(3S)-piperidin-3-yl]pyrazin-2-amine] was tested. Which “percent inhibition (where no Ki data is available)” value [1] did it give?
Answer: The value was 0%.

Question: And the EC50 ([2]; Homo sapiens, HeLa)?
Answer: The EC50 was 486 nM.

Question: For C[C@@H]1CC[C@@H](Nc2cncc(-c3cnc4cnccn34)n2)CN1 [Example 146, 6-imidazo[1,2-a]pyrazin-3-yl-N-[(3R,6R)-6-methylpiperidin-3-yl]pyrazin-2-amine], which Ki [1] is on record?
Answer: Its Ki is 19 nM.

Question: And the EC50 ([2]; Homo sapiens, HeLa)?
Answer: Its EC50 is 493 nM.

Question: How did the Ki [1] turn out when C[C@@H]1NCCC[C@H]1Nc1cncc(-c2cnc3ccccn23)n1 [Example 101, 6-imidazo[1,2-a]pyridin-3-yl-N-[(2S,3R)-2-methylpiperidin-3-yl]pyrazin-2-amine] was run?
Answer: Its Ki is 55.4 nM.

Question: What about the EC50 ([2]; Homo sapiens, HeLa) of the same molecule?
Answer: Its EC50 is at least 10000 nM.

Question: Which results are given for C[C@H]1NCCC[C@@H]1Nc1cncc(-c2cnc3ccc(F)cn23)n1 [Example 172, 6-(6-fluoroimidazo[1,2-a]pyridin-3-yl)-N-[(2R,3S)-2-methylpiperidin-3-yl]pyrazin-2-amine]?
Answer: Ki [1]: 178 nM; EC50 ([2]; Homo sapiens, HeLa): ≥ 10000 nM

Question: With CC(C)c1cn2c(-c3cncc(N[C@H]4CCCN[C@@H]4C)n3)cnc2s1 [Example 173, N-[(2R,3S)-2-methylpiperidin-3-yl]-6-[2-(propan-2-yl)imidazo[2,1-b][1,3]thiazol-5-yl]pyrazin-2-amine] as the molecule, how does the Ki [1] read?
Answer: The Ki was 23.7 nM.

Question: What about the EC50 ([2]; Homo sapiens, HeLa) of the same molecule?
Answer: Its EC50 is at least 10000 nM.

Question: COc1ccn2c(-c3cncc(N[C@@H]4CCNC4)n3)cnc2c1 [Example 52, 6-(7-Methoxyimidazo[1,2-a]pyridin-3-yl)-N-[(3R)-pyrrolidin-3-yl]pyrazin-2-amine] was tested. Which Ki [1] did it give?
Answer: Its Ki is 9.55 nM.

Question: What about the EC50 ([2]; Homo sapiens, HeLa) of the same molecule?
Answer: The EC50 was 72.9 nM.

Question: For COC[C@@H]1C[C@@H](Nc2cncc(-c3cnc4ccc(Cl)cn34)n2)CN1 [Example 246, 6-(6-chloroimidazo[1,2-a]pyridin-3-yl)-N-[(3R,5S)-5-(methoxymethyl)pyrrolidin-3-yl]pyrazin-2-amine], which Ki [1] is on record?
Answer: The Ki was 35.3 nM.

Question: What about the EC50 ([2]; Homo sapiens, HeLa) of the same molecule?
Answer: Its EC50 is 229 nM.

Question: Which Ki [1] does the source give for COc1ccn2c(-c3cncc(N[C@H]4CNC[C@H]4c4ccccc4)n3)cnc2c1 [Example 152, 6-(7-methoxyimidazo[1,2-a]pyridin-3-yl)-N-[(3R,4R)-4-phenylpyrrolidin-3-yl]pyrazin-2-amine] here?
Answer: The Ki was 1.47 nM.

Question: And the EC50 ([2]; Homo sapiens, HeLa)?
Answer: Its EC50 is 5.6 nM.

Question: For Cc1cn2c(-c3cncc(N[C@H]4CCCN[C@@H]4C)n3)cnc2s1 [Example 134, 6-(2-methylimidazo[2,1-b][1,3]thiazol-5-yl)-N-[(2R,3S)-2-methylpiperidin-3-yl]pyrazin-2-amine], which “percent inhibition (where no Ki data is available)” value [1] is on record?
Answer: The value was 0%.

Question: What about the EC50 ([2]; Homo sapiens, HeLa) of the same molecule?
Answer: The EC50 was at least 10000 nM.

Question: COc1ccc2ncc(-c3cncc(N[C@@H]4CCNC4)n3)n2c1 [Example 55, 6-(6-Methoxyimidazo[1,2-a]pyridin-3-yl)-N-[(3R)-pyrrolidin-3-yl]pyrazin-2-amine] was tested. Which Ki [1] did it give?
Answer: The Ki was 23 nM.

Question: And the EC50 ([2]; Homo sapiens, HeLa)?
Answer: The EC50 was 229 nM.

Question: Which results are given for c1cn2c(-c3cncc(N[C@@H]4CCNC4)n3)cnc2s1 [Example 49, 6-Imidazo[2,1-b][1,3]thiazol-5-yl-N-[(3R)-pyrrolidin-3-yl]pyrazin-2-amine]?
Answer: Ki [1]: 11.7 nM; EC50 ([2]; Homo sapiens, HeLa): 142 nM

Question: For Clc1ccc2c(-c3cncc(N[C@@H]4CCCNC4)n3)cnn2c1 [Example 117, 6-(6-chloropyrazolo[1,5-a]pyridin-3-yl)-N-[(3R)-piperidin-3-yl]pyrazin-2-amine], which Ki [1] is on record?
Answer: Its Ki is 0.802 nM.

Question: What about the EC50 ([2]; Homo sapiens, HeLa) of the same molecule?
Answer: Its EC50 is 32.9 nM.

Question: Which results are given for Cc1cn2c(-c3cncc(N[C@@H]4CCCN[C@H]4C)n3)cnc2s1 [Example 97, 6-(2-methylimidazo[2,1-b][1,3]thiazol-5-yl)-N-[(2S,3R)-2-methylpiperidin-3-yl]pyrazin-2-amine]?
Answer: Ki [1]: 8.62 nM; EC50 [2]: 151 nM

Question: How did the Ki [1] turn out when c1cc2c(cc1OCC1CC1)ncn2-c1cncc(N[C@@H]2CCNC2)n1 [Example 221, 6-[5-(cyclopropylmethoxy)-1H-benzimidazol-1-yl]-N-[(3R)-pyrrolidin-3-yl]pyrazin-2-amine] was run?
Answer: The Ki was 3.34 nM.

Question: What about the EC50 ([2]; Homo sapiens, HeLa) of the same molecule?
Answer: Its EC50 is 370 nM.

Question: What does the source list for C[C@H]1CC[C@@H](Nc2cncc(-c3cnc4ccccn34)n2)CN1 [Example 30, 6-imidazo[1,2-a]pyridin-3-yl-N-[(3R,6S)-6-methylpiperidin-3-yl]pyrazin-2-amine]?
Answer: Ki [1]: 147 nM; EC50 ([2]; Homo sapiens, HeLa): 634 nM

Question: For COc1ccc2c(c1)ncn2-c1cncc(N[C@@H]2CCNC2)n1 [Example 218, 6-(5-methoxy-1H-benzimidazol-1-yl)-N-[(3R)-pyrrolidin-3-yl]pyrazin-2-amine], which Ki [1] is on record?
Answer: The Ki was 5.12 nM.

Question: What about the EC50 ([2]; Homo sapiens, HeLa) of the same molecule?
Answer: The EC50 was at least 10000 nM.

Question: Which results are given for CO[C@H]1CNC[C@H](Nc2cncc(-c3cnc4ccccn34)n2)C1 [Example 156, 6-(imidazo[1,2-a]pyridin-3-yl)-N-[(3R,5R)-5-methoxypiperidin-3-yl]pyrazin-2-amine]?
Answer: Ki [1]: 28.4 nM; EC50 ([2]; Homo sapiens, HeLa): 314 nM

Question: With FC(F)(F)c1ccn2c(-c3cncc(N[C@@H]4CCNC4)n3)cnc2c1 [Example 53, N-[(3R)-pyrrolidin-3-yl]-6-[7-(trifluoromethyl)imidazo[1,2-a]pyridin-3-yl]pyrazin-2-amine] as the molecule, how does the Ki [1] read?
Answer: The Ki was 37 nM.

Question: And the EC50 ([2]; Homo sapiens, HeLa)?
Answer: Its EC50 is 459 nM.

Question: Which Ki [1] does the source give for C[C@@H]1C[C@@H](Nc2cncc(-c3cnn4ccccc34)n2)CN1 [Example 145, N-[(3R,5R)-5-methylpyrrolidin-3-yl]-6-pyrazolo[1,5-a]pyridin-3-ylpyrazin-2-amine] here?
Answer: The Ki was 8.1 nM.

Question: What about the EC50 ([2]; Homo sapiens, HeLa) of the same molecule?
Answer: The EC50 was 389 nM.

Question: Which results are given for CCOc1ccc2ncn(-c3cncc(N[C@@H]4CCCNC4)n3)c2c1 [Example 149, 6-(6-ethoxy-1H-benzimidazol-1-yl)-N-[(3R)-piperidin-3-yl]pyrazin-2-amine]?
Answer: Ki [1]: 6.77 nM; EC50 ([2]; Homo sapiens, HeLa): ≥ 10000 nM

Question: How did the Ki [1] turn out when Cc1ncc(-c2cncc(N[C@@H]3CCCNC3)n2)n1C [Example 64, 6-(1,2-dimethyl-1H-imidazol-5-yl)-N-[(3R)-piperidin-3-yl]pyrazin-2-amine] was run?
Answer: Its Ki is 1110 nM.

Question: What about the EC50 ([2]; Homo sapiens, HeLa) of the same molecule?
Answer: The EC50 was at least 10000 nM.

Question: For C[C@@H]1CNC[C@@H]1Nc1cncc(-c2cnc3ccccn23)n1 [Example 12, 6-Imidazo[1,2-a]pyridin-3-yl-N-[(3R,4R)-4-methylpyrrolidin-3-yl]pyrazin-2-amine], which Ki [1] is on record?
Answer: The Ki was 27.5 nM.

Question: What about the EC50 ([2]; Homo sapiens, HeLa) of the same molecule?
Answer: Its EC50 is 68.4 nM.

Question: CCOC[C@@H]1C[C@@H](Nc2cncc(-c3cnc4ccccn34)n2)CN1 [Example 193, N-[(3R,5S)-5-(ethoxymethyl)pyrrolidin-3-yl]-6-(imidazo[1,2-a]pyridin-3-yl)pyrazin-2-amine] was tested. Which Ki [1] did it give?
Answer: The Ki was 26.5 nM.

Question: What about the EC50 ([2]; Homo sapiens, HeLa) of the same molecule?
Answer: The EC50 was 102 nM.

Question: How did the Ki [1] turn out when C[C@@H]1CNC[C@@H]1Nc1cncc(-c2cnn3ccccc23)n1 [Example 119, N-[(3R,4R)-4-methylpyrrolidin-3-yl]-6-pyrazolo[1,5-a]pyridin-3-ylpyrazin-2-amine] was run?
Answer: The Ki was 5.38 nM.

Question: What about the EC50 ([2]; Homo sapiens, HeLa) of the same molecule?
Answer: The EC50 was 26.7 nM.

Question: Which results are given for CCc1cn2c(-c3cncc(N[C@@H]4C[C@@H]5CN[C@H]4C5)n3)cnc2s1 [Example 128, (1S,4R,6R)-N-[6-(2-ethylimidazo[2,1-b][1,3]thiazol-5-yl)pyrazin-2-yl]-2-azabicyclo[2.2.1]heptan-6-amine]?
Answer: Ki [1]: 1.79 nM; EC50 ([2]; Homo sapiens, HeLa): 172 nM

Question: Which results are given for Cc1cn2c(-c3cncc(N[C@@H]4CC[C@@H](C)NC4)n3)cnc2s1 (relative stereo) [Example 61, Trans 6-(2-Methylimidazo[2,1-b][1,3]thiazol-5-yl)-N-(6-methylpiperidin-3-yl)pyrazin-2-amine]?
Answer: Ki [1]: 37.9 nM; EC50 ([2]; Homo sapiens, HeLa): 119 nM

Question: CCc1ccn2c(-c3cncc(N[C@@H]4CCNC4)n3)cnc2c1 [Example 56, 6-(7-Ethylimidazo[1,2-a]pyridin-3-yl)-N-[(3R)-pyrrolidin-3-yl]pyrazin-2-amine] was tested. Which Ki [1] did it give?
Answer: Its Ki is 11.2 nM.

Question: And the EC50 ([2]; Homo sapiens, HeLa)?
Answer: Its EC50 is 126 nM.

Question: Which results are given for CCc1cn2c(-c3cncc(N[C@H]4CNC[C@H]4CF)n3)cnc2s1 [Example 185, 6-(2-ethylimidazo[2,1-b][1,3]thiazol-5-yl)-N-[(3R,4R)-4-(fluoromethyl)pyrrolidin-3-yl]pyrazin-2-amine]?
Answer: Ki [1]: 5.4 nM; EC50 ([2]; Homo sapiens, HeLa): 66.4 nM
